# According to paper PMC6973051, “Proline‐Rich Peptides with Improved Antimicrobial Activity against E. coli, K. pneumoniae, and A. baumannii” (Chemmedchem, 2019):
# Ends that are not written are not given here.
# Tests used:
# S. aureus ATCC 25923 [1] = assay type: cell-based, Staphylococcus aureus; conditions: ATCC 25923, 18 h
# Excerpt: (§1) The following bacterial strains were used: Escherichia coli BW25113, E. coli BW25113ΔsbmA (JW0368‐1, KEIO collection21); Acinetobacter baumannii ATCC 19606, Klebsiella pneumoniae ATCC 700603, Pseudomonas aeruginosa ATCC 27853 and Staphylococcus aureus ATCC 25923. The pathogenic E. coli EURL‐VTEC A07, E. coli EURL‐VTEC C07, E. coli SSI‐NN14, E. coli EA22, E. coli SSI‐OO15 and E. coli C679‐12 strains were generously provided by the European Union Reference Laboratory for E. coli, Department of Food Safety, Nutrition and Veterinary Public Health, Istituto Superiore di Sanità, Rome, Italy. All the strains were grown overnight in Müller‐Hinton broth (MHB, Difco) at 37 °C, with shaking (140 rpm). The day after, the overnight bacterial cultures were diluted approx. 1 : 40 in fresh MHB and incubated at 37 °C with shaking (140 rpm) until an OD600nm of ≈0.3 was reached. E. coli BW25113ΔsbmA was grown in the presence of 50 μg mL^−1 kanamycin.
# (§2) Peptides were diluted in 100 μL of MHB to the concentration of 128 μM, dispensed in the first wells of a 96‐wells microtiter plate (round‐bottom) and serially two‐fold diluted with MHB into successive wells in a final volume of 50 μl. Subsequently, 50 μL of a bacterial suspension (5×10^5 CFU mL^−1) were added to each well, halving the final concentration of bacteria and peptides. Bacteria were added to MHB only as bacterial growth‐control, whereas 100 μl of MHB were used to check the medium sterility. The plate was incubated overnight at 37 °C (≈18 hours) and sealed with parafilm to minimise evaporation. The MIC was calculated as the first clear well without bacterial growth. If barely detectable growth was present, the OD600nm of the plate was measured by a multiplate reader Tecan (software Sunrise). The MIC was then calculated as the well whose OD620 was≤1 % of that of the untreated growth control.
# E. coli BW25113 [2] = assay type: cell-based, Escherichia coli
# Excerpt: (§3) Table 3 MIC and MBC of the native Bac5(1–17) (wt) and selected Bac5‐derivatives on pathogenic and reference bacterial strains. | column: MBC (μM) / wt; MBC (μM) / 258; MBC (μM) / 272; MBC (μM) / 278; MBC (μM) / 281; MBC (μM) / 291
# P. aeruginosa ATCC 27853 [3] = assay type: cell-based, Pseudomonas aeruginosa
# Excerpt: as §3
# [4] = test system: K. pneumoniae ATCC 700603; assay type: cell-based, Klebsiella pneumoniae
# Excerpt: as §3
# S. aureus ATCC 25923 [5] = assay type: cell-based, Staphylococcus aureus
# Excerpt: as §3
# E. coli BW25113 [6] = assay type: cell-based, Escherichia coli; conditions: BW25113, 18 h
# Excerpt: as §1, §2
# [7] = test system: E. coli C679‐12 EAEC:0104; assay type: cell-based, Escherichia coli; conditions: C679‐12 EAEC:0104, 18 h
# Excerpt: as §1, §2
# E. coli EA22 ETEC = assay type: cell-based, Escherichia coli; conditions: 18 h
# Excerpt: as §1, §2
# E. coli SSI‐OO15 EIEC = assay type: cell-based, Escherichia coli; conditions: 18 h
# Excerpt: as §1, §2
# [8] = test system: E. coli EURL‐VTEC C07 STEC:O157; assay type: cell-based, Escherichia coli; conditions: EURL‐VTEC C07 STEC:O157, 18 h
# Excerpt: as §1, §2
# [9] = test system: E. coli EURL‐VTEC A07 EPEC:O111; assay type: cell-based, Escherichia coli; conditions: EURL‐VTEC A07 EPEC:O111, 18 h
# Excerpt: as §1, §2
# A. baumannii ATCC 19606 [10] = assay type: cell-based, Acinetobacter baumannii; conditions: ATCC 19606, 18 h
# Excerpt: as §1
# Peptides were diluted in 100 μL of MHB to the concentration of 128 μM, dispensed in the first wells of a 96‐wells microtiter plate (round‐bottom) and serially two‐fold diluted with MHB into successive wells in a final volume of 50 μl. […] The MIC was calculated as the first clear well without bacterial growth. If barely detectable growth was present, the OD600nm of the plate was measured by a multiplate reader Tecan (software Sunrise). […]
# A. baumannii ATCC 19606 [11] = assay type: cell-based, Acinetobacter baumannii
# Excerpt: as §3
# P. aeruginosa ATCC 27853 [12] = assay type: cell-based, Pseudomonas aeruginosa; conditions: ATCC 27853, 18 h
# Excerpt: as §1, §2
# E. coli BW25113 [13] = test: Propidium iodide uptake by flow cytometry (membrane permeabilization); assay type: cell-based, Escherichia coli; conditions: 1 μM colistin (positive control), 30 min
# Method: The bacterial cell integrity was controlled evaluating the propidium iodide (PI) uptake by flow‐cytometry on a Cytomics FC 500 (Beckman‐Coulter). 10^4 bacterial cells were acquired for each measurement. Mid‐log phase E. coli BW25113 cultures diluted to 10^6 CFU mL^−1 in MHB were exposed for 30 min to 4 μM and 16 μM peptides at 37 °C in the presence of 10 μg mL^−1 PI. Membrane permeabilization was calculated as the % PI‐positive cells, and membrane damage measuring the mean fluorescence intensity (MFI). An untreated control received sterile water instead of peptides. By contrast, bacteria were treated with 1 μM colistin as a permeabilizing control. Data are reported as the average ± standard deviation.
substance,measurement,setting,value
"RFRPPIRRPPIRPPFYP [wt, reference compound]",MIC,S. aureus ATCC 25923 [1],>64 µM
same,MBC,E. coli BW25113 [2],>64 µM
same,MBC,P. aeruginosa ATCC 27853 [3],>64 µM
same,MBC,[4],>64 µM
same,MBC,S. aureus ATCC 25923 [5],>64 µM
same,MIC,E. coli BW25113 [6],16 µM
same,MIC,[7],16 µM
same,MIC,E. coli EA22 ETEC,2 µM
same,MIC,E. coli SSI‐OO15 EIEC,16 µM
same,MIC,[8],>64 µM
same,MIC,[9],16 µM
same,MIC,A. baumannii ATCC 19606 [10],>64 µM
same,MBC,A. baumannii ATCC 19606 [11],>64 µM
same,MIC,P. aeruginosa ATCC 27853 [12],>64 µM
RFRPPIRRPPIRPPFYR [compound 258],MIC,S. aureus ATCC 25923 [1],>64 µM
same,MBC,E. coli BW25113 [2],64 µM
same,MBC,P. aeruginosa ATCC 27853 [3],>64 µM
same,MBC,[4],>64 µM
same,MBC,S. aureus ATCC 25923 [5],>64 µM
same,MIC,E. coli BW25113 [6],8 µM
same,MIC,[7],8 µM
same,MIC,E. coli EA22 ETEC,2 µM
same,MIC,E. coli SSI‐OO15 EIEC,4 µM
same,MIC,[8],>64 µM
same,MIC,[9],8 µM
same,MIC,A. baumannii ATCC 19606 [10],64 µM
same,MBC,A. baumannii ATCC 19606 [11],64 µM
same,MIC,P. aeruginosa ATCC 27853 [12],>64 µM
RFRPPWRRPPIRPPFYPG-NH2 (C-terminus assumed) [I6W],MIC,E. coli BW25113 [6],8 µM
RFRPRIRRPPIRPPFYPG-NH2 (C-terminus assumed) [P5R],MIC,E. coli BW25113 [6],16 µM
RFRPSIRRPPIRPPFYPG-NH2 (C-terminus assumed) [P5S],MIC,E. coli BW25113 [6],64 µM
RFRPWIRRPPIRPPFYPG-NH2 (C-terminus assumed) [P5W],MIC,E. coli BW25113 [6],16 µM
RFRRPIRRPPIRPPFYPG-NH2 (C-terminus assumed) [P4R],MIC,E. coli BW25113 [6],4 µM
RFRSPIRRPPIRPPFYPG-NH2 (C-terminus assumed) [P4S],MIC,E. coli BW25113 [6],16 µM
RFRWPIRRPPIRPPFYR [compound 272],MIC,S. aureus ATCC 25923 [1],>64 µM
same,MBC,E. coli BW25113 [2],8 µM
same,MBC,P. aeruginosa ATCC 27853 [3],64 µM
same,MBC,[4],>64 µM
same,MBC,S. aureus ATCC 25923 [5],>64 µM
same,MIC,E. coli BW25113 [6],4 µM
same,MIC,[7],2 µM
same,MIC,E. coli EA22 ETEC,1 µM
same,MIC,E. coli SSI‐OO15 EIEC,1 µM
same,MIC,[8],8 µM
same,MIC,[9],2 µM
same,MBC,A. baumannii ATCC 19606 [11],16 µM
RFRWPIRRPPIRPPFYRG-NH2 [272 (SPOT form)],MIC,E. coli BW25113 [6],4 µM
RFSPPIRRPPIRPPFYPG-NH2 [R3S],MIC,E. coli BW25113 [6],>64 µM
RFWPPIRRPPIRPPFYPG-NH2 [R3W],MIC,E. coli BW25113 [6],32 µM
RGRPPIRRPPIRPPFYPG-NH2 (C-terminus assumed) [F2G],MIC,E. coli BW25113 [6],16 µM
RPRPPIRRPPIRPPFYPG-NH2 (C-terminus assumed) [F2P],MIC,E. coli BW25113 [6],64 µM
RRRPPIRRPPIRPPFYPG-NH2 (C-terminus assumed) [F2R],MIC,E. coli BW25113 [6],16 µM
RSRPPIRRPPIRPPFYPG-NH2 (C-terminus assumed) [F2S],MIC,E. coli BW25113 [6],64 µM
RWRRPIRRRPIRPPFWR [compound 291],MBC,E. coli BW25113 [2],8 µM
same,MBC,P. aeruginosa ATCC 27853 [3],>64 µM
same,MBC,[4],>64 µM
same,MBC,S. aureus ATCC 25923 [5],64 µM
same,MIC,E. coli BW25113 [6],2 µM
same,MIC,[7],1 µM
same,MIC,E. coli EA22 ETEC,1 µM
same,MIC,E. coli SSI‐OO15 EIEC,1 µM
same,MIC,[8],2 µM
same,MIC,[9],2 µM
same,MBC,A. baumannii ATCC 19606 [11],16 µM
RWRRPIRRRPIRPPFWRG-NH2 [291 (SPOT form)],MIC,E. coli BW25113 [6],4 µM
RWRRPIRRRPIRPPFYW [compound 281],MBC,E. coli BW25113 [2],2 µM
same,MBC,P. aeruginosa ATCC 27853 [3],48 µM
same,MBC,[4],>64 µM
same,MBC,S. aureus ATCC 25923 [5],32 µM
same,MIC,E. coli BW25113 [6],2 µM
same,MIC,[7],2 µM
same,MIC,E. coli EA22 ETEC,2 µM
same,MIC,E. coli SSI‐OO15 EIEC,1 µM
same,MIC,[8],2 µM
same,MIC,[9],2 µM
same,MBC,A. baumannii ATCC 19606 [11],8 µM
RWRRPIRRRPIRPPFYWG-NH2 [281 (SPOT form)],MIC,E. coli BW25113 [6],4 µM
RWRWPIRRPPIRPPFYR [compound 278],MIC,S. aureus ATCC 25923 [1],>64 µM
same,MBC,E. coli BW25113 [2],4 µM
same,MBC,P. aeruginosa ATCC 27853 [3],64 µM
same,MBC,[4],48 µM
same,MBC,S. aureus ATCC 25923 [5],>64 µM
same,MIC,E. coli BW25113 [6],2 µM
same,MIC,[7],2 µM
same,MIC,E. coli EA22 ETEC,1 µM
same,MIC,E. coli SSI‐OO15 EIEC,1 µM
same,MIC,[8],8 µM
same,MIC,[9],1 µM
same,MBC,A. baumannii ATCC 19606 [11],8 µM
same,MIC,P. aeruginosa ATCC 27853 [12],16 µM
RWRWPIRRPPIRPPFYRG-NH2 [278 (SPOT form)],MIC,E. coli BW25113 [6],4 µM
SFRPPIRRPPIRPPFYPG-NH2 [R1S],MIC,E. coli BW25113 [6],>64 µM
WFRPPIRRPPIRPPFYPG-NH2 [R1W],MIC,E. coli BW25113 [6],32 µM
colistin,permeabilized bacterial cells (PI‐positive),E. coli BW25113 [13],~100%
